Assay results reported in PubChem BioAssay (NCI).
Where “and” joins values, the source holds several entries; their conditions need not be identical. Equal entries are not always repeated.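 Exposure lasted 48 hours, with cells grown in 96-well plates and compounds tested at five concentrations. The concentration for 50% growth inhibition is given as GI50. TGI is the concentration that stops growth completely.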

Key:
Experiment in all cases: NCI-60 cell line screen, 48 h
EKVX NSCLC = tested on: EKVX NSCLC
HCC-2998 colon = tested on: HCC-2998 colon
MDA-MB-231 breast = tested on: MDA-MB-231 breast
OVCAR-5 ovarian = tested on: OVCAR-5 ovarian
SK-MEL-5 melanoma = tested on: SK-MEL-5 melanoma
TK-10 renal = tested on: TK-10 renal
MCF7 breast = tested on: MCF7 breast
HOP-92 NSCLC = tested on: HOP-92 NSCLC

Row | SMILES | GI50 (EKVX NSCLC) [µM] | TGI (EKVX NSCLC) | TGI (HCC-2998 colon) [µM] | GI50 (MDA-MB-231 breast) [µM] | TGI (MDA-MB-231 breast) | GI50 (OVCAR-5 ovarian) [µM] | TGI (SK-MEL-5 melanoma) [µM] | GI50 (TK-10 renal) [µM] | TGI (TK-10 renal) [µM] | TGI (MCF7 breast) [µM] | TGI (OVCAR-5 ovarian) [µM] | TGI (HOP-92 NSCLC) [µM] | GI50 (HCC-2998 colon) [µM] | GI50 (HOP-92 NSCLC) [µM] | GI50 (SK-MEL-5 melanoma) [µM]
1 | CN(C)CC(NC(NCS)C(=O)NCCNc1ccc(NCCNC(=O)C(NCS)NC(CN(C)C)OCCl)c2c1C(=O)c1c(O)ccc(O)c1C2=O)OCCl (centres undefined) | 0.516 | 1.26 µM and 2.51 µM | 1.86 | 1.05 | 0.305 µM and 2.68 µM | 0.713 | 0.94 | 0.34 | 2.44 | – | – | – | – | – | –
2 | CS(=O)(=O)O.[Ag] | – | 38.4 µM | 28.8 | – | 41 µM | – | 18.3 | – | 7.74 | 24.8 | 35 | – | – | – | –
3 | COc1ccc2c(c1)-c1nn(CCN(C)C)c3ccc(C(=O)NCCCN(C)CCCNC(=O)c4ccc5c6c(nn5CCN(C)C)-c5cc(OC)ccc5Nc46)c(c13)N2 | – | 1.68 µM | 0.306 | – | 0.689 µM | – | 0.313 | – | 4.95 | 1.97 | 1.66 | – | – | – | –
4 | O=C(CCCn1ccnc1[N+](=O)[O-])NCCn1ccnc1[N+](=O)[O-] | – | > 100 µM | > 100 | – | – | – | > 100 | – | > 100 | > 100 | > 100 | – | – | – | –
5 | CN(C)CCn1c(=O)c2ccc3c4c(nn3CCN(C)C)c3ccccc3n(c1=O)c24 | – | 0.112 µM | 0.534 | – | 1.96 µM | – | 1.42 | – | 2.35 | 1.05 | 2.89 | – | – | – | –
6 | CN(c1ccccc1Cl)S(=O)(=O)c1ccccc1[N+](=O)[O-] | – | > 100 µM | > 100 | – | > 100 µM | – | 28.9 | – | > 100 | – | > 100 | – | – | – | –
7 | CC(C)C1=CC23CCC4C(C)(C(=O)O)CCCC4(C)C2CC1C(C(=O)O)C3C(=O)O (centres undefined) | – | > 100 µM | – | – | > 100 µM | – | > 100 | – | > 100 | – | > 100 | > 100 | – | – | –
8 | CC1(C)[C@@H]2C[C@H]1C(Cc1cccc(C[C@H]3c4cc(-c5ccccn5)ncc4[C@H]4C[C@@H]3C4(C)C)c1)c1cc(-c3ccccn3)ncc12 (some centres undefined) | – | > 46.8 µM | > 100 | – | > 100 µM | – | > 35.8 | – | > 100 | > 100 | > 100 | – | – | – | –
9 | Cn1ccc(C(=O)NCCCCCNC(=O)c2ccn(C)c(=O)c2O)c(O)c1=O | – | – | > 100 | – | > 100 µM | – | > 100 | – | > 100 | – | – | > 100 | – | – | –
10 | Cc1n(CC(=O)c2ccccc2)nc2sc(N)n[n+]12 | – | > 100 µM | > 100 | – | – | – | > 100 | – | > 100 | > 100 | > 100 | – | – | – | –
11 | O=C(/C=C/c1ccccc1O)/C=C/c1ccccc1O | – | – | – | – | 5.29 µM | – | 2.8 | – | 3.27 | – | 3.14 | 4.87 | – | – | –
12 | CCCCCCOc1ccc(NC2=C(Cl)C(=O)c3ncccc3C2=O)cc1 | – | > 10 µM | – | – | – | – | 2.92 | – | > 10 | 2.63 | > 10 | > 10 | – | – | –
13 | COc1cc2c(cc1Cl)n([O-])c(C#N)c(N1CCN(c3ccc([N+](=O)[O-])cc3)CC1)[n+]2=O | – | > 100 µM | 78.8 | – | > 100 µM | – | > 59.6 | – | > 100 | > 100 | > 100 | – | – | – | –
14 | N#Cc1c(N2CCN(c3ccc([N+](=O)[O-])cc3)CC2)[n+](=O)c2ccc(Cl)cc2n1[O-] | – | 10.8 µM | 4.4 | – | – | – | – | – | 8.86 | > 33.3 | 29.1 | – | – | – | –
15 | NC(=O)CS(=O)CC(N)C(=O)O (centres undefined) | – | > 100 µM | > 100 | – | > 100 µM | – | > 100 | – | > 100 | – | > 100 | > 100 | – | – | –
16 | COc1ccc(C2c3cc4c(cc3OC(N3CCCCC3)C2C)OCO4)cc1 (centres undefined) | – | > 100 µM | – | – | – | – | > 100 | – | > 100 | > 100 | > 100 | – | – | – | –
17 | Nc1nc2cc(CNc3ccc(C(=O)NC(CCC(=O)O)C(=O)O)cc3)ccc2nc1-c1ccccc1 (centres undefined) | – | > 10 µM | > 10 | – | > 10 µM | – | > 10 | – | > 10 | > 10 | > 10 | – | – | – | –
18 | CC(=O)OCC1OC(c2nnc(C)o2)=CC(OC(C)=O)C1OC(C)=O (centres undefined) | – | > 100 µM | – | – | > 100 µM | – | > 100 | – | > 100 | > 100 | > 100 | – | – | – | –
19 | O=C1C[C@H](c2ccccc2)C2(C(=O)c3ccccc3C2=O)[C@H](c2ccccc2)C1 | – | – | > 100 | – | 80.2 µM | – | > 100 | – | – | – | > 100 | > 100 | – | – | –
20 | COc1ccc2c(c1)-c1oc3ccccc3c(=O)c1CO2 | – | > 100 µM | > 100 | – | 90.8 µM | – | 36.2 | – | > 100 | > 100 | > 100 | – | – | – | –
21 | CC(C)CCC[C@@H](C)[C@H]1CCC2C3=CCC4C(=O)C=CC(=O)C4C3CC[C@@]21C (some centres undefined) | 0.279 | – | 0.855 | 0.331 | 1.32 µM | 0.212 | 2.66 | 2.65 | > 100 | – | > 100 | 0.67 | 0.274 | 0.135 | 0.419
22 | Cc1cc([N+](=O)[O-])ccc1N=NC(=O)NNc1ccc([N+](=O)[O-])cc1C | – | – | 31 | – | – | – | 26.7 | – | 31.5 | 20.5 | 31.8 | – | – | – | –
